The text below walks through data of PubChem BioAssay (NCI).

The term GI50 denotes the concentration that inhibits growth by half. As usually defined, the TGI is the concentration at which net growth stops. The low end stands for greater sensitivity of the cells, the high end for lower sensitivity of the cells.

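Five compound concentrations were applied to cells in 96-well plates for 48 hours; endpoints were derived by simple linear interpolation of the resulting dose-response curve. GI50 marks 50% less growth. The concentration for full growth arrest is given as TGI.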

Among the test systems are HT29 colon; EKVX NSCLC; UACC-62 melanoma; KM12 colon; OVCAR-3 ovarian; SK-OV-3 ovarian; CAKI-1 renal; RXF 393 renal; SN12C renal; MOLT-4 leukemia.
What all share (test): DTP human tumour cell line panel, 48 h

Consider `N#C[Se]CCN1C(=O)C2C(C1=O)[C@H]1C=C[C@@H]2S1` (some centres undefined), for which the GI50 in the assay with HT29 colon is 2.65 µM; with EKVX NSCLC it was 1.83 µM; with UACC-62 melanoma it was 1.98 µM; in the assay with KM12 colon, 2.32 µM; in the assay on OVCAR-3 ovarian, 1.94 µM; in the assay on SK-OV-3 ovarian, 2.67 µM. The GI50 in the assay on CAKI-1 renal was 1.9 µM; in the assay on RXF 393 renal, 1.63 µM; in the assay on SN12C renal, 1.92 µM; with MOLT-4 leukemia it was 1.31 µM. Moreover, the TGI in the assay with HT29 colon amounted to 8.98 µM; in the assay on EKVX NSCLC, 4.28 µM; with UACC-62 melanoma, 4.27 µM; with KM12 colon, 5.38 µM; in the assay with OVCAR-3 ovarian it was 3.85 µM; in the assay with SK-OV-3 ovarian, 5.59 µM. The concentration for total growth inhibition (TGI) in the assay on CAKI-1 renal came to 3.39 µM; in the assay with RXF 393 renal, 3.27 µM; in the assay with SN12C renal, 4.07 µM; with MOLT-4 leukemia, 8.06 µM.
Consider `N#Cc1c(N2CCOCC2)nc(=S)[nH]c1-c1ccccc1`, for which the GI50 is 33.5 µM with HT29 colon; 20.2 µM in the assay on EKVX NSCLC; 4.95 µM in the assay with UACC-62 melanoma; 35 µM in the assay with KM12 colon; 16.9 µM with OVCAR-3 ovarian; 8.48 µM in the assay with SK-OV-3 ovarian. Moreover, the GI50 in the assay on CAKI-1 renal was 9.29 µM; in the assay on RXF 393 renal, 21 µM; in the assay on SN12C renal, 19 µM; in the assay on MOLT-4 leukemia, 10.7 µM. The TGI in the assay on HT29 colon was greater than 100 µM; in the assay with EKVX NSCLC it was greater than 100 µM; in the assay with UACC-62 melanoma, greater than 100 µM; with KM12 colon, greater than 100 µM; in the assay with OVCAR-3 ovarian, greater than 100 µM; in the assay with SK-OV-3 ovarian, 98.6 µM. The TGI in the assay with CAKI-1 renal, with RXF 393 renal, in the assay with SN12C renal and in the assay with MOLT-4 leukemia was greater than 100 µM each time.
For the compound `CN(C)CCCCC(C(=O)CBr)(c1ccccc1)c1ccccc1`, the GI50 was 1.92 µM with HT29 colon; 2.22 µM in the assay on EKVX NSCLC; 1.64 µM in the assay with UACC-62 melanoma; 7.57 µM in the assay on KM12 colon; 1.37 µM with OVCAR-3 ovarian; 6.63 µM in the assay with SK-OV-3 ovarian. The GI50 was 1.42 µM in the assay with CAKI-1 renal, 1.74 µM in the assay with RXF 393 renal, 1.98 µM in the assay on SN12C renal and 1.92 µM in the assay on MOLT-4 leukemia. Further, the TGI in the assay with HT29 colon is 3.94 µM; in the assay with EKVX NSCLC, 7.42 µM; in the assay with UACC-62 melanoma, 4.14 µM; in the assay with KM12 colon, 20.7 µM; with OVCAR-3 ovarian, 2.69 µM; in the assay on SK-OV-3 ovarian, 19.4 µM. The TGI in the assay on CAKI-1 renal was found to be 2.84 µM; in the assay with RXF 393 renal, 4.06 µM; in the assay with SN12C renal it was 5.07 µM; with MOLT-4 leukemia, 5.67 µM.
For `COc1cc(/C(=C2/O[C@@H]([C@H]3COC(C)(C)O3)[C@H]3OC(C)(C)O[C@@H]23)c2ccc3ccccc3c2)cc(OC)c1OC`, the GI50 was 3.64 µM in the assay on HT29 colon; 5.59 µM in the assay with EKVX NSCLC; 7.13 µM with UACC-62 melanoma; 6 µM with KM12 colon; 2.39 µM in the assay on OVCAR-3 ovarian; 4.37 µM in the assay on SK-OV-3 ovarian. Moreover, the GI50 was 4.54 µM in the assay with CAKI-1 renal, 2.54 µM in the assay with RXF 393 renal, 3.65 µM in the assay with SN12C renal and greater than 100 µM in the assay on MOLT-4 leukemia. The TGI in the assay with HT29 colon was 16.3 µM; in the assay on EKVX NSCLC, greater than 100 µM; in the assay with UACC-62 melanoma it was greater than 100 µM; in the assay on KM12 colon, greater than 100 µM; in the assay on OVCAR-3 ovarian it was 5.67 µM; in the assay on SK-OV-3 ovarian, greater than 100 µM. For the same compound, the total growth inhibition concentration (TGI) in the assay on CAKI-1 renal is greater than 100 µM; with RXF 393 renal, 5.99 µM; in the assay on SN12C renal, greater than 100 µM; in the assay on MOLT-4 leukemia it was greater than 100 µM.
Turning to `CCOC(=O)c1cc(C(=O)c2cc(OC)c(OC)c(OC)c2)n2c1ccc1ccccc12`, the GI50 is 0.254 µM in the assay with HT29 colon; 0.461 µM in the assay with EKVX NSCLC; 0.171 µM in the assay on UACC-62 melanoma; 0.26 µM in the assay with KM12 colon; 0.151 µM in the assay on OVCAR-3 ovarian; 1.02 µM with SK-OV-3 ovarian. The GI50 in the assay on CAKI-1 renal is 0.0717 µM; in the assay on RXF 393 renal it was 0.22 µM; with SN12C renal, 0.814 µM; in the assay with MOLT-4 leukemia it was 0.477 µM. The TGI in the assay with EKVX NSCLC was greater than 100 µM; with UACC-62 melanoma it was greater than 100 µM; in the assay with KM12 colon, greater than 100 µM; in the assay on OVCAR-3 ovarian it was 1.26 µM; with SK-OV-3 ovarian it was greater than 100 µM; in the assay with CAKI-1 renal, greater than 100 µM. The figures for the TGI with RXF 393 renal, in the assay with SN12C renal and in the assay on MOLT-4 leukemia were 0.81 µM, greater than 100 µM and greater than 100 µM, respectively.
`COc1cccc(/C=N/NC(=O)c2ccccc2N2CCCC2)c1O`: the GI50 in the assay on HT29 colon was 30.4 µM; with EKVX NSCLC, 3.32 µM; in the assay on UACC-62 melanoma, 3.73 µM; in the assay with KM12 colon, 38.4 µM; in the assay with OVCAR-3 ovarian, 3.3 µM; in the assay with SK-OV-3 ovarian, 4.9 µM. The GI50 in the assay with CAKI-1 renal was 3.97 µM; in the assay with RXF 393 renal it was 44.4 µM; in the assay with SN12C renal, 15.5 µM; with MOLT-4 leukemia it was 1.52 µM. Also, the TGI with HT29 colon was greater than 100 µM; with EKVX NSCLC, greater than 100 µM; with UACC-62 melanoma, 19.7 µM; in the assay on KM12 colon it was greater than 100 µM; with OVCAR-3 ovarian, greater than 100 µM; with SK-OV-3 ovarian, 90.6 µM. Moreover, the TGI in the assay with CAKI-1 renal, in the assay on RXF 393 renal, in the assay with SN12C renal and with MOLT-4 leukemia was greater than 100 µM each time.
